The text below walks through data of US7504537B2, “Hydroxamic acid derivative and MMP inhibitor containing the same as active ingredient” (Dainippon Sumitomo Pharma Co., Ltd., priority 2001, dated 2009).

SMILES strings stand for the structures. A value given as a limit tells only on which side of the number the result lay.

Common to all, as to type: biochemical
For one experiment, the target named is T1, MMP-13 (Homo sapiens, UniProt P45452).
T1 construct: a fragment of 767 bp encoding original 84 amino acids of complete MMP-13 and encoding 164 amino acids; made in house; host or cells: E. coli BL21 (DE3), pET11a
The experiment in a line: Test 2 Test on MMP-13 inhibition activity (fluorogenic peptide substrate). Conditions: activated MMP-13, 37° C. The source says:
Test 2 Test on MMP-13 Inhibition Activity
In order to subcloning C-terminal truncated cDNA in which the cDNA encodes procollagenase-3 (proMMP-13) (J. Biol. Chem., 269(24), 16766-16773 (1994)), two synthesized oligonucleotide primer fragments: • (5′-[…]-3′ and 5′-[…]-3′: In former the sequence for specific NdeI site (under line) including first methionine is included, and in latter terminal codon and BamHI site (under lined) are included.) were used with human cartilage cell cDNA library for PCR. Due to these primers and Pfu DNA polymelase (STRATAGENE) for PCR, there was obtained a fragment of 767 bp encoding original 84 amino acids of complete MMP-13 and encoding 164 amino acids. The said fragment was cut out with digestion by NdeI and BamHI, and the fragment was annealed to NdeI site and BamHI site of pET11a (STRATAGENE). The recombinant plasmid was transformed into E. coli BL21 (DE3) and the bacteria were cultivated. The crude cell extract was prepared according to the method of Biochemistry. The said extract was dialyzed with 20 mM Tris-HCl (pH 7.2)/5 mM CaCl2/0.02% NaN3 solution, treated with SP-sepharose HP column (1.6×10 cm, Amasham-Pharmacia biotec), and the eluting was carried out by liner gradient from 0 to 0.3 m of sodium chloride solution (50 ml) (partially purified proMMP-13 was eluted at about 0.2M.) The eluted fraction was dialyzed with 20 mM Tris-HCl (pH 7.9)/5 mM CaCl2/200 mM (NH4)2SO4/0.02% NaN3 solution, treated with phenylsepharose HP column (1.6×5 cm, Amersham-Pharmacia biotec), and the eluting was carried out by liner gradient from 0.2M to 0M sulfuric acid ammonium solution (purified proMMP-13 was eluted at about 50 mM.). The eluted fraction was concentrated by YM-5 ultrafilter membrane, and activated by 4-aminophenyl mercuric acetate. Activated MMP-13 was treated with gel filtration chromatography in accordance with the method of Biochemistry to be separated from propeptide. Inhibiting Test Method
Enzyme activity test was carried out by the method of G. Knight (FEBS Lett., 296(3), 263-266 (1992)).
A mixture of activated MMP-13 (20 nM, 10 μl), buffer solution (70 μl, pH 7.5 solution containing 100 mM Tris-HCl solution, 10 mM calcium chloride solution, 100 mM sodium chloride solution and 0.05% Briji-35 solution), MOCAc-Pro-Leu-Gly-Leu-A2pr(DNP)-Ala-Arg-NH2 in 0.1% DMSO solution (100 μM, 10 μl) and a test compound in DMSO solution was incubated for 1.5 hours at 37° C. The mixture was put on a 96 well-plate (100 μl/wel), and the plate was incubated at 37° C. The enzyme activity in the presence of the compound was measured based on fluorescence intensity (λex 320 nm, λem 405 nm), and IC50 was calculated.

The target in a further experiment is T2, MMP-3 (Homo sapiens, UniProt P08254).
T2 construct: C-terminal truncated cDNA in which the cDNA encodes human prostromelysin; made in house; host or cells: E. coli
T2 sequence (P08254 100-272 limits assumed): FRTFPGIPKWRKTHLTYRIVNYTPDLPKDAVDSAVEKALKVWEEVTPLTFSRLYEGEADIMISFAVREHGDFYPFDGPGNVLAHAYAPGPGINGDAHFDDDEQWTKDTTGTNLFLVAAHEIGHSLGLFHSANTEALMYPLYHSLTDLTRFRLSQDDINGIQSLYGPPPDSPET
The experiment in a line: Test 1 Test on MMP-3 inhibiting activity (fluorogenic peptide substrate). Conditions: activated MMP-3, 37° C.; read-out: MMP-3 inhibition activity value. On the procedure: Test 1 Test on MMP-3 Inhibiting Activity
C-terminal truncated cDNA in which the cDNA encodes human prostromelysin, was subcloned (proMMP-3, cDNA sequence in Nature, 348, 699-704 (1990)), was expressed in E. coli and then, the expressed protein was purified in accordance with the method described in Biochemistry 30, 6476-6483 (1991). proMMP-3 activation was carried out by treating with 1 mM 4-aminophenyl mercuric acetate for 60 minutes at 37° C.
Enzyme activity test was conducted by the method of C. G. Knight (FEBS Lett., 296(3), 263-266 (1992)).
A mixture of activated MMP-3 (20 nM, 10 μl), buffer solution (70 μl, pH 7.5 solution containing 100 mM Tris-HCl solution, 10 mM calcium chloride solution, 100 mM sodium chloride solution and 0.05% Brij-35 solution), MOCAc-Pro-Leu-Gly-Leu-A2pr(DNP)-Ala-Arg-NH2 in 0.1% DMSO solution (100 μM, 10 μl) and a test compound in DMSO solution was incubated for 1.5 hours at 37° C. The mixture was put on a 96 well-plate (100 μl/well) and the plate was cultured at 37° C. The enzyme activity in the presence of the compound was measured based on fluorescence intensity (λex 320 nm, λem 405 nm), and IC50 was calculated.

For the next experiment, the target named is MMP-9 (Homo sapiens, UniProt P14780). The experiment in a line: Test 4 MMP-9 inhibiting activity test (biotin labeled gelatin). Conditions: activated human MMP-9, biotin labeled gelatin; read-out: MMP-9 inhibition activity value. As for the experimental part: Test 4 MMP-9 Inhibiting Activity Test
Sequence of MMP-9 (P14780 107-707 limits assumed): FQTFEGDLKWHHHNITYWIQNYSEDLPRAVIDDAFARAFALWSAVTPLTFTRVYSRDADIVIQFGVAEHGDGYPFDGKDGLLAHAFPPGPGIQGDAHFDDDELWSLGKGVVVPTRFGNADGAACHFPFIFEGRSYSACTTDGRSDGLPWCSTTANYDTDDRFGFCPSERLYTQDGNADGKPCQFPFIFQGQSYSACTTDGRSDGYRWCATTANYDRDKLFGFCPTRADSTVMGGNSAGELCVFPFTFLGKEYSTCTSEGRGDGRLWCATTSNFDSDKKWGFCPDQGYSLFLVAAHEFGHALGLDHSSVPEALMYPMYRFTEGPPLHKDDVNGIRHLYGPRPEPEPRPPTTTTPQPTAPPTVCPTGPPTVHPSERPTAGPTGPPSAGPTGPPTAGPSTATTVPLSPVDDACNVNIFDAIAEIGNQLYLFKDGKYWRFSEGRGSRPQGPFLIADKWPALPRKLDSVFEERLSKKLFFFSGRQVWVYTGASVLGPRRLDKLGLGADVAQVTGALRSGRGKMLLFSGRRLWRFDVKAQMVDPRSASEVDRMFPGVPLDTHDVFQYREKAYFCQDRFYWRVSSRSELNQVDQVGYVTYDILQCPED
A mixture of buffer solution (190 μl; pH 7.5 solution containing 50 mM Tris-HCl solution, 0.5 m sodium chloride solution and 5 mM calcium chloride solution), human MMP-9 (10 μl) and trypsin solution (20 μl; trypsin 3 mg in activated buffer (5 ml)) was incubated at 37° C. for 10 minutes. Thereto was added aprotinine solution (20 μl; aprotinine (3 mg) in buffer (5 ml)) and the mixture was incubated at 37° C. for 10 minutes, followed by addition of buffer (2 ml). The mixture was preserved under cooling with ice until use.
A mixture of DMSO solution (2 μl) containing definite concentration of the compound, biotin labeled gelatin (188 μl) and activated MMP-9 solution (10 μl) was put on a 96 well-assay plate (protein nonabsorbance type), well agitated, and incubated at 37° C. for 1 hour. This solution was transferred to Streptavidin-coating plate, and agitated at 15° C. to 30° C. for 30 minutes. And then the solution was washed with TTC buffer solution (200 μl) three times. Thereto was added Streptavidin-POD (200 μl) and the mixture was agitated at 15° C. to 25° C. for 60 minutes, followed by washing with TTC buffer (200 μl) three times. Then, ABTS solution (200 μl) was added thereto and after standing at room temperature for 40 minutes, furuorescence intensity was measured at 405 nm and IC50 was calculated.
In case of the above test, DMSO (2 μl) was used as a control instead of a sample solution. In the case of a blank, DMSO (2 μl) instead of the sample solution and the solution (10 μl) prepared in the same manner as preparation of […] but without adding 1.2 Uhuman MMP-9, instead of activated MMP-9 solution (10 μl), were used.

For the molecule `CCOC(=O)CCN(C1(C(=O)NO)CCCC1)S(=O)(=O)c1ccc(Oc2ccc(S(C)(=O)=O)cc2)cc1` [Example 26, Ethyl N-{1-[(hydroxyamino)carbonyl]cyclopentyl}-N-({4-[4-(methylsulfonyl)phenoxy]phenyl}sulfonyl)-β-alaninate], the values for the IC50 against MMP-13, at MMP-3 and on MMP-9 were 1.9 nM, 14.3 nM and more than 100 nM, respectively.

On to `CCOC(=O)CN(CC(=O)NO)S(=O)(=O)c1ccc(Oc2ccc(S(C)(=O)=O)cc2)cc1` [Example 22, Ethyl N-{[(hydroxyamino)carbonyl]methyl}-N-({4-[4-(methylsulfonyl)phenoxy]phenyl}sulfonyl)-glycinate], for which the IC50 at MMP-13 came to 1.9 nM; on MMP-3, 26.6 nM; at MMP-9, 1400 nM.

Turning to `CS(=O)(=O)c1ccc(Oc2ccc(S(=O)(=O)N(Cc3ccccc3)C3(C(=O)NO)CCOCC3)cc2)cc1` [Example 12, 4-[Benzyl({4-[4-(methylsulfonyl)phenoxy]phenyl}sulfonyl)amino]-N-hydroxytetrahydoro-2H-pyrane-4-carboxamide], the IC50 against MMP-13 was 4 nM; on MMP-3 it was 16 nM; on MMP-9, less than 100 nM.

As to `CC(C)CN(C1(C(=O)NO)CCCC1)S(=O)(=O)c1ccc(Oc2ccc(S(C)(=O)=O)cc2)cc1` [Example 2, N-hydroxy 1-[isobutyl({4-[4-(methylsulfonyl)phenoxy]phenyl}sulfonyl)amino]cyclopentanecarboxamide], the IC50 at MMP-13 amounted to 5.7 nM; at MMP-3, 21.2 nM; at MMP-9, 300 nM.

Turning to `COc1ccc(Oc2ccc(CC3Sc4ccc(C(=O)O)cc4N(CC(=O)NO)C3=O)cc2)cc1` (stereo not drawn) [compound 1, reference compound], the IC50 at MMP-13 is 7.4 nM; on MMP-3, 88 nM; at MMP-9, more than 100 nM.

Take `CC(C)OCCN(CC(=O)NO)S(=O)(=O)c1ccc(Oc2ccc(S(C)(=O)=O)cc2)cc1` [Example 3, N^1-hydroxy-N^2-(2-isopropoxyethyl)-N^2-({4-[4-(methylsulfonyl)phenoxy]phenyl}sulfonyl)glycinamide]: the IC50 on MMP-13 amounted to 0.5 nM; on MMP-3 it was 4.8 nM; on MMP-9 it was 1000 nM.

As for `CS(=O)(=O)c1ccc(Oc2ccc(S(=O)(=O)N(CCC(=O)O)C3(C(=O)NO)CCCC3)cc2)cc1` [Example 27, N-{1-[(Hydroxyamino)carbonyl]cyclopentyl}-N-({4-[4-(methylsulfonyl)phenoxy]phenyl}sulfonyl)-β-alanine], the figures for the IC50 against MMP-13, at MMP-3 and at MMP-9 were 21.3 nM, 89.4 nM and more than 10000 nM, respectively.

As to `CS(=O)(=O)c1ccc(Oc2ccc(CC3Sc4ccc(C(=O)O)cc4N(CC(=O)NO)C3=O)cc2)cc1` (stereo not drawn) [Example 50], the results for the IC50 against MMP-13, at MMP-3 and on MMP-9 were 3 nM, 38 nM and 244 nM, respectively.

Turning to `CS(=O)(=O)c1ccc(Oc2ccc(S(=O)(=O)NC3(C(=O)NO)CCC3)cc2)cc1` [Example 48, N-Hydroxy-1-[({4-[4-(methylsulfonyl)phenoxy]phenyl}sulfonyl)amino]cyclobutanecarboxamide], the results for the IC50 against MMP-13, on MMP-3 and on MMP-9 were 6.9 nM, 35.9 nM and more than 100 nM, respectively.

With `CS(=O)(=O)c1ccc(Oc2ccc(S(=O)(=O)N(CC(=O)NO)Cc3ccncc3)cc2)cc1` [Example 42, N′^1′-Hydroxy-N′^2′-({4-[4-(methylsulfonyl)phenoxy]phenyl}sulfonyl)-N′^2′-(4-pyridinylmethyl)glycinamide], the IC50 against MMP-13 turned out to be 4.02 nM; at MMP-3, 67.5 nM; at MMP-9 it was 4300 nM.

With `COCCCN(CC(=O)NO)S(=O)(=O)c1ccc(Oc2ccc(S(C)(=O)=O)cc2)cc1` [Example 43, N^1-Hydroxy-N^2-(3-methoxypropyl)-N^2-({4-[4-(methylsulfonyl)phenoxy]phenyl}sulfonyl)glycinamide], the IC50 at MMP-13 was less than 0.5 nM; on MMP-3 it was 8.5 nM; at MMP-9 it was 600 nM.

For the molecule `CCOCCN(C1(C(=O)NO)CCCC1)S(=O)(=O)c1ccc(Oc2ccc(S(C)(=O)=O)cc2)cc1` [Example 45, 1-[(2-Ethoxyethyl)({4-[4-(methylsulfonyl)phenoxy]phenyl}sulfonyl)amino]-N-hydroxycyclopentanecarboxamide], the IC50 against MMP-13 was 0.6 nM; on MMP-3, 1.5 nM; at MMP-9 it was more than 100 nM.

Consider `CCOC(=O)CN(C1(C(=O)NO)CCC1)S(=O)(=O)c1ccc(Oc2ccc(S(C)(=O)=O)cc2)cc1` [Example 46, Ethyl N-{1-[(hydroxyamino)carbonyl]cyclobutyl}-N-({4-[4-(methylsulfonyl)phenoxy]phenyl}sulfonyl)glycinate], for which the IC50 on MMP-13 is 10.5 nM; on MMP-3, 11.6 nM; at MMP-9, more than 100 nM.

`CCOC(=O)CN(C1(C(=O)NO)CCCC1)S(=O)(=O)c1ccc(Oc2ccc(S(C)(=O)=O)cc2)cc1` [Example 23, Ethyl N-{1-[(hydroxyamino)carbonyl]cyclopentyl}-N-({4-[4-(methylsulfonyl)phenoxy]phenyl}sulfonyl)glycinate]: the IC50 against MMP-13 is 4.1 nM; at MMP-3 it was 21.6 nM; at MMP-9 it was 2300 nM.

Regarding `CS(=O)(=O)c1ccc(Oc2ccc(S(=O)(=O)N(CCC(=O)O)CC(=O)NO)cc2)cc1` [Example 36, N-[2-(Hydroxyamino)-2-oxoethyl]-N-({4-[4-(methylsulfonyl)phenoxy]phenyl}sulfonyl)-β-alanine], the IC50 is 3.81 nM at MMP-13, 37.1 nM on MMP-3 and more than 100 nM on MMP-9.
